Patent US20150141411A1, “SUBSTITUTED 3,4-DIHYDRO-2H-PYRIDO[1,2-A]PYRAZINE-1,6-DIONE DERIVATIVES USEFUL FOR THE TREATMENT OF (INTER ALIA) ALZHEIMER'S DISEASE” (Janssen Pharmaceuticals, Inc., priority 2012, published 2015)
pIC50: −log10 of the molar value.

What was measured:
[1] = target: T1, γ-secretase (Homo sapiens, UniProt P49768); experiment: Screening for γ-secretase-modulating activity: Aβ42 in supernatant of SKNBE2 cells carrying hAPP 695 wild type (Alphalisa); type: cell-based; conditions: SKNBE2 human neuroblastoma cells carrying hAPP 695 wild type, overnight incubation, Aβ42 in cell supernatant
T1 construct: endogenous in cells; host or cells: SKNBE2 human neuroblastoma cells (carrying hAPP 695 wild type as substrate)
Method: (§1) Screening was carried out using SKNBE2 human neuroblastoma cells carrying the hAPP 695—wild type, grown in Dulbecco's Modified Eagle's Medium/Nutrient mixture F-12 (DMEM/NUT-mix F-12) (HAM) provided by Invitrogen (cat no. 10371-029) containing 5% Serum/Fe supplemented with 1% non-essential amino acids, 1-glutamine 2 mM, Hepes 15 mM, penicillin 50 U/ml (units/ml) en streptomycin 50 μg/ml. Cells were grown to near confluency.
(§2) The screening was performed using a modification of the assay as described in Citron et al (1997) Nature Medicine 3: 67. Briefly, cells were plated in a 384-well plate at 10^4 cells/well in Ultraculture (Lonza, BE12-725F) supplemented with 1% glutamine (Invitrogen, 25030-024), 1% non-essential amino acid (NEAA), penicillin 50 U/ml en streptomycin 50 μg/ml in the presence of test compound at different test concentrations. The cell/compound mixture was incubated overnight at 37° C., 5% CO2. The next day the media were assayed by two sandwich immuno-assays, for Aβ42 and Aβ total.
(§3) Aβtotal and Aβ42 concentrations were quantified in the cell supernatant using the Aphalisa technology (Perkin Elmer). Alphalisa is a sandwich assay using biotinylated antibody attached to streptavidin coated donorbeads and antibody conjugated to acceptor beads. In the presence of antigen, the beads come into close proximity. The excitation of the donor beads provokes the release of singlet oxygen molecules that trigger a cascade of energy transfer in the acceptor beads, resulting in light emission. To quantify the amount of Aβ42 in the cell supernatant, monoclonal antibody specific to the C-terminus of Aβ42 (JRF/cAβ42/26) was coupled to the receptor beads and biotinylated antibody specific to the N-terminus of Aβ (JRF/AβN/25) was used to react with the donor beads. To quantify the amount of Aβtotal in the cell supernatant, monoclonal antibody specific to the N-terminus of Aβ (JRF/AβN/25) was coupled to the receptor beads and biotinylated antibody specific to the mid region of Aβ (biotinylated 4G8) was used to react with the donor beads.
(§4) To obtain the values reported in Table 3, the data are calculated as percentage of the maximum amount of amyloid Beta 42 measured in the absence of the test compound. The sigmoidal dose response curves were analyzed using non-linear regression analysis with percentage of the control plotted against the log concentration of the compound. A 4-parameter equation was used to determine the IC50.

[2] = target: T1, γ-secretase; experiment: Screening for γ-secretase-modulating activity: Aβtotal in supernatant of SKNBE2 cells carrying hAPP 695 wild type (Alphalisa); type: cell-based; conditions: SKNBE2 human neuroblastoma cells carrying hAPP 695 wild type, overnight incubation, Aβtotal in cell supernatant
Method: as §1, §2, §3, §4

Cc1cn(-c2ccc3n(c2=O)CCN(CCCC(C)(C)C)C3=O)cn1 [compound 15]
pIC50 [1]: 5.64 | pIC50 [2]: < 5.00

CCCc1nccn1-c1ccc2n(c1=O)CCN(CCC1CC1)C2=O [compound 16]
pIC50 [1]: < 5.00 | pIC50 [2]: < 5.00

CCCc1nccn1-c1ccc2n(c1=O)CCN(CC1CC1)C2=O [compound 17]
pIC50 [1]: < 5.00 | pIC50 [2]: < 5.00

Cc1cn(-c2ccc3n(c2=O)CCN(Cc2ccccc2)C3=O)cn1 [compound 19]
pIC50 [1]: 5.17 | pIC50 [2]: < 5.00

Cc1cn(-c2ccc3n(c2=O)C[C@@H](C)N(Cc2cccc(Cl)c2)C3=O)cn1 [compound 24]
pIC50 [1]: 5.96 | pIC50 [2]: < 5.00

Cc1cn(-c2ccc3n(c2=O)C[C@@H](C2CC2)N(Cc2ccc(Cl)c(Cl)c2)C3=O)cn1 [compound 33]
pIC50 [1]: 5.78 | pIC50 [2]: < 5.00

Cc1cn(-c2ccc3n(c2=O)CCN(Cc2cccc(Cl)c2F)C3=O)cn1 [compound 39]
pIC50 [1]: 6.02 | pIC50 [2]: < 5.00

Cc1cn(-c2ccc3n(c2=O)CCN(c2ccc(F)cc2C)C3=O)cn1 [compound 41]
pIC50 [1]: < 5.00 | pIC50 [2]: < 5.00

Cc1cn(-c2ccc3n(c2=O)C[C@@H](CO)N(Cc2cc(C(F)(F)F)cc(C(F)(F)F)c2)C3=O)cn1 [compound 45]
pIC50 [1]: 6.27 | pIC50 [2]: < 5.00

COC[C@@H]1Cn2c(ccc(-n3cnc(C)c3)c2=O)C(=O)N1Cc1cc(C(F)(F)F)cc(C(F)(F)F)c1 [compound 47]
pIC50 [1]: 6.59 | pIC50 [2]: < 5.00

Cc1cn(-c2ccc3n(c2=O)C[C@@H](CN(C)C)N(Cc2cc(C(F)(F)F)cc(C(F)(F)F)c2)C3=O)cn1 [compound 48]
pIC50 [1]: 6.24 | pIC50 [2]: < 5.00

CNC[C@@H]1Cn2c(ccc(-n3cnc(C)c3)c2=O)C(=O)N1Cc1cc(C(F)(F)F)cc(C(F)(F)F)c1 [compound 49]
pIC50 [1]: 5.47 | pIC50 [2]: < 5.00

Cc1cn(-c2ccc3n(c2=O)CCN(C(c2cc(C(F)(F)F)cc(C(F)(F)F)c2)C2CCOCC2)C3=O)cn1 (stereo not shown) [compound 51]
pIC50 [1]: 6.30 | pIC50 [2]: < 5.00

COCC(c1cc(C(F)(F)F)cc(C(F)(F)F)c1)N1CCn2c(ccc(-n3cnc(C)c3)c2=O)C1=O (stereo not shown) [compound 54]
pIC50 [1]: 5.90 | pIC50 [2]: < 5.00

Cc1cc(CN2CCn3c(ccc(-n4cnc(C)c4)c3=O)C2=O)cc(C(F)(F)F)c1 [compound 60]
pIC50 [1]: 6.18 | pIC50 [2]: < 5.00

Cc1cn(-c2ccc3n(c2=O)C[C@@H](C)N(Cc2cccc(C(F)(F)F)c2C)C3=O)cn1 [compound 61]
pIC50 [1]: 6.32 | pIC50 [2]: < 5.00

Cc1cn(-c2ccc3n(c2=O)CCN(Cc2cccc(C(F)(F)F)c2Cl)C3=O)cn1 [compound 64]
pIC50 [1]: 6.16 | pIC50 [2]: < 5.00

COc1cccc(CN2CCn3c(ccc(-n4cnc(C)c4)c3=O)C2=O)c1 [compound 66]
pIC50 [1]: 5.41 | pIC50 [2]: < 5.00

Cc1cn(-c2ccc3n(c2=O)C[C@@H](C)N(Cc2cc(C(F)(F)F)ccc2Cl)C3=O)cn1 [compound 71]
pIC50 [1]: 6.55 | pIC50 [2]: < 5.00

Cc1cn(-c2ccc3n(c2=O)C[C@@H](C)N(Cc2cc(C(F)(F)F)ccc2C)C3=O)cn1 [compound 72]
pIC50 [1]: 6.72 | pIC50 [2]: < 5.00

CCOCc1cc(CN2C(=O)c3ccc(-n4cnc(C)c4)c(=O)n3C[C@H]2C)cc(C(F)(F)F)c1 [compound 76]
pIC50 [1]: 6.72 | pIC50 [2]: < 5.00

COc1cc(C)c(CN2C(=O)c3ccc(-n4cnc(C)c4)c(=O)n3C[C@H]2C)cc1C(C)C [compound 77]
pIC50 [1]: 6.72 | pIC50 [2]: < 5.00

Cc1cn(-c2ccc3n(c2=O)C[C@@H](C)N(Cc2cccc(OC(F)(F)F)c2)C3=O)cn1 [compound 79]
pIC50 [1]: 6.55 | pIC50 [2]: < 5.00
